Like-named read-outs stand apart in the source and are kept apart here.
Experiments:
Format in all cases: cell-based
hTRPC5 = biological target: T1, hTRPC5 (Homo sapiens, UniProt Q9UL62); test: TRPC5 inhibitory activity assay (FLIPR calcium fluorescence, Englerin A stimulation)
T1 construct: expressed in transfected cells; host or cells: HEK-293
T1 sequence (Q9UL62 1-973): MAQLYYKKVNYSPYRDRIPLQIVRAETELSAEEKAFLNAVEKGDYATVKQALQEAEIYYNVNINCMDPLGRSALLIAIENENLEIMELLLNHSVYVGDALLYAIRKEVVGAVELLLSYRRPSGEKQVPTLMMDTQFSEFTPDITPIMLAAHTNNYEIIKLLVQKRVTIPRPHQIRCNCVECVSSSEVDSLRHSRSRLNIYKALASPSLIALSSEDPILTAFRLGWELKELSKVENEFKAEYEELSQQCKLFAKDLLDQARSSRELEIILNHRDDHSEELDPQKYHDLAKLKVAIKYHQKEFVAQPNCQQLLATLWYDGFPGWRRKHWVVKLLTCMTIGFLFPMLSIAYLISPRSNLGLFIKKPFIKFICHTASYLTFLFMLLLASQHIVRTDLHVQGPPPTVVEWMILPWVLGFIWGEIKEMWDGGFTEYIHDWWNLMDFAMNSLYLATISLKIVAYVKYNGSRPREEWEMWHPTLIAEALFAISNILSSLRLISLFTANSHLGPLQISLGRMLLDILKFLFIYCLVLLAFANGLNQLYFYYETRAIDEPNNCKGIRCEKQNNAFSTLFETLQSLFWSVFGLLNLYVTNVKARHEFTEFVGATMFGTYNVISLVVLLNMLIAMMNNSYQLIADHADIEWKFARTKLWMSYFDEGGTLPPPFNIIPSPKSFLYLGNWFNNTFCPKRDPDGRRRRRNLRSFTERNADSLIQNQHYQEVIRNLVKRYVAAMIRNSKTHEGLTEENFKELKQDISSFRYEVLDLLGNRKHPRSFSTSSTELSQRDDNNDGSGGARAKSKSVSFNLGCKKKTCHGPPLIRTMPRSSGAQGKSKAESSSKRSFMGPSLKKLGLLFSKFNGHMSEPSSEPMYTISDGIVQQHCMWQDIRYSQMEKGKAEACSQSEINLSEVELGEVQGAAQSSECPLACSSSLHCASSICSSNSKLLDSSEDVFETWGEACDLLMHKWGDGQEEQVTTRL
Outline: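 HEK-293 cells expressing the human channel, loaded with 4 µM Fluo-4/AM for 60 min at 37 °C, then stimulated with Englerin A (0.3nM final) and read for 600 s.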

[1] = biological target: T2, hERG channel (relative to TRPC5) (Homo sapiens, UniProt Q12809); test: hERG channel inhibition assay (Qpatch whole-cell recording, CHO cells expressing hERG); conditions: human, CHO cells expressing hERG; ratio of IC50 values
T2 construct: expressed in transfected cells; host or cells: CHO
T2 sequence (Q12809 whole entry): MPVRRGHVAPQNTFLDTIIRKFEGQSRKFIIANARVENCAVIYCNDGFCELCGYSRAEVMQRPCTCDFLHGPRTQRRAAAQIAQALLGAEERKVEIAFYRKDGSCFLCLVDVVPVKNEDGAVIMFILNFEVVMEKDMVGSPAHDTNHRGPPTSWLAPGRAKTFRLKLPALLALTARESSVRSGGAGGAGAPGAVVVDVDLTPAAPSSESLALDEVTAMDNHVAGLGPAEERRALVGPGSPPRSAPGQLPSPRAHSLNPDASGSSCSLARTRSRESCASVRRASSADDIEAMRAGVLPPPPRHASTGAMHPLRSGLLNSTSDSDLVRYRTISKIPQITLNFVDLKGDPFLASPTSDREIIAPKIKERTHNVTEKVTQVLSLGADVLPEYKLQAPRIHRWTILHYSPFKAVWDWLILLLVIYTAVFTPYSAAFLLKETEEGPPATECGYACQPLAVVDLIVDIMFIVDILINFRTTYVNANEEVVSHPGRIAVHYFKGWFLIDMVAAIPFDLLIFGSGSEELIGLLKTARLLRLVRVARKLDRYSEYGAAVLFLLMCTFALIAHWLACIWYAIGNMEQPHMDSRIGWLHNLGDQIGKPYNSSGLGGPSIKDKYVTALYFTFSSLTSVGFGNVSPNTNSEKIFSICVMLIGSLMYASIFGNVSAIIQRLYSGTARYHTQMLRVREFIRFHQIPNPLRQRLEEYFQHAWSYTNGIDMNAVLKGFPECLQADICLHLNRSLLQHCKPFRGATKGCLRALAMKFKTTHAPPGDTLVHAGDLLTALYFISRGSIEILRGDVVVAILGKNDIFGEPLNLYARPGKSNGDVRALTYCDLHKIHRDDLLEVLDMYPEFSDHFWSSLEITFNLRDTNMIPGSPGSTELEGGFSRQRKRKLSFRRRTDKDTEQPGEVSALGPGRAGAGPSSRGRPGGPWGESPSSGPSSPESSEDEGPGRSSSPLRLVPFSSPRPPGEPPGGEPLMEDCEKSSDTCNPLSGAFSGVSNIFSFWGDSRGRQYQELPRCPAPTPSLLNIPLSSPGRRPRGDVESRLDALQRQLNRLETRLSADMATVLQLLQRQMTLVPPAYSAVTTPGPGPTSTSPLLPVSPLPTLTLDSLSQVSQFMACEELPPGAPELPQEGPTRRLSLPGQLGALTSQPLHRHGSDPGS
Experimental: (§1) CHO cells expressing hERG protein were cultured in 175cm^2 culture flasks. When the cell density grew to 60-80%, the culture medium was removed, and the cells were washed with 7mL PBS, and then 3mL Detachin was added for digestion. After digestion was complete, 7mL culture medium was added for neutralization, and then centrifuged, the supernatant was aspirated, and 5mL culture medium was added for resuspending to ensure that the cell density was 2-5×10^6/mL.
(§2) The single-cell high-impedance sealing and whole-cell pattern formation process were all automatically completed by the Qpatch instrument. After obtaining the whole-cell recording mode, the cell was clamped at -80 mV. […] This voltage stimulus was applied every 15 seconds. After recording for 2 minutes, the extracellular solution was recorded for 2 minutes, and then the drug administration process began. The compound concentration started from the lowest test concentration, and each test concentration was given for 2 minutes. After all concentrations were given continuously, the positive control compound 10 µM Cisapride was given. At least 3 cells (n≥3) were tested for each concentration.
(§3) The stock solution of compound was diluted with extracellular solution, 5 µL of 20 mM compound stock solution was added to 2495 µL of extracellular solution, 500 times diluted to 40 µM, and then 3 times serial dilution was performed in the extracellular solution containing 0.2% DMSO to obtain the final concentration to be tested.
(§4) (5) Data analysis: The experimental data were analyzed by XLFit software.

hERG channel = biological target: T3, hERG channel (Homo sapiens, UniProt Q12809); test: as above; conditions: for IC50: Table 3, highest test concentration 40 µM, read-out: inhibitory activity IC50 hERG
T3 construct: expressed in transfected cells; host or cells: CHO
T3 sequence (Q12809 whole entry): as above
Experimental: as §1, §2, §3, §4

[2] = Table 1, TRPC5 channels, HEK-293 cells expressing hTRPC5, read-out: FLIPR IC50
[3] = Table 3, read-out: inhibitory activity IC50 TRPC5

Row | SMILES | IC50 (hTRPC5; [2]) | IC50 (hTRPC5; [3]) | selectivity ratio at 2 min [1] | IC50 (hERG channel) | IC50 (hTRPC5) | selectivity ratio (hERG channel; ratio of IC50 values, read-out: relative selectivity hERG/ TRPC5)
1 | COC1CCC(F)(c2nc3c(c(=O)n(CCCO)c(=O)n3C)n2Cc2ccc(Cl)cc2)CC1 (stereo not drawn) [Example E32, 7-(4-chlorobenzyl)-8-(1-fluoro-4-methoxycyclohexyl)-1-(3-hydroxypropyl)-3-methyl-3,7-dihydro-1H-purine-2,6-dione] | 10.2 nM | 10.2 nM | 737 | 7520 nM | – | –
2 | Cn1c(=O)n(CCCO)c(=O)c2c1nc(C1(F)CCC(C(F)(F)F)CC1)n2Cc1ccc(Cl)cc1 (stereo not drawn) [Example E21, 7-(4-chlorobenzyl)-8-(1-fluoro-4-(trifluoromethyl)cyclohexyl)-1-(3-hydroxypropyl)-3-methyl-3,7-dihydro-1H-purine-2,6-dione] | 5.1 nM | 5.1 nM | > 7840 | > 40000 nM | – | –
3 | Cn1c(=O)n(CCCO)c(=O)c2c1nc(C1(F)CCC(C(F)(F)F)CC1)n2Cc1ccc(F)c(F)c1 (stereo not drawn) [Example E52] | – | – | – | > 40000 nM | 1.3 nM | > 30800
4 | Cn1c(=O)n(CCCO)c(=O)c2c1nc(C1(F)CCC(F)(F)CC1)n2Cc1ccc(F)c(Cl)c1 [Example E68, 7-(3-chloro-4-fluorobenzyl)-1-(3-hydroxypropyl)-3-methyl-8-(1,4,4-trifluorocyclohexyl)-3,7-dihydro-1H-purine-2,6-dione] | 0.58 nM | 0.58 nM | > 69000 | > 40000 nM | – | –
